In the NIST ThermoML archive (doi:10.1016/j.fluid.2017.03.011):

How the values were obtained:
[1] = refractive index (Na D-line) (dimensionless); an = ratio of the nth substance listed; conditions: 101 kPa, Liquid, Standard Abbe refractometry, a2 = 3
[2] = an = ratio of the nth substance listed; conditions: 101 kPa, Liquid, a2 = 3; for electrical conductivity: Alternating current cell with electrodes; for speed of sound: Sing-around technique in a fixed-path interferometer; for mass density: Vibrating tube method; for viscosity: Falling or rolling sphere viscometry

CCC[N+](CCC)(CCC)Cc1ccccc1.[Cl-] [benzyltripropylammonium chloride] + CC(O)C(=O)O
Conditions	electrical conductivity, [2] [S/m]	mass density, [2] [kg/m3]	refractive index, [1]	speed of sound, [2] [m/s]	viscosity, [2] [mPa·s]
293.15 K	0.0011	1120.61	1.4944	1658.2	–
298.15 K	0.0018	1117.05	1.4926	1640.8	–
303.15 K	0.003	1113.49	1.4908	1624.7	2276.7
308.15 K	0.0047	1109.92	1.4892	1607.9	1288.3
313.15 K	0.0071	1106.36	1.4876	1592.5	780.5
318.15 K	0.0103	1102.71	1.4858	1577.6	489.2
323.15 K	0.0146	1099.19	1.4844	1563.7	319
328.15 K	0.0201	1095.66	1.4824	1550.1	215.6
333.15 K	0.0267	1092.1	1.4811	1537.3	150.6
338.15 K	0.035	1088.54	1.4791	1525.1	108.5
343.15 K	0.0443	1084.99	1.4778	1513.6	81.3

CCC[N+](CCC)(CCC)Cc1ccccc1.[Cl-] [benzyltripropylammonium chloride] + OCC(O)CO
Conditions	electrical conductivity, [2] [S/m]	mass density, [2] [kg/m3]	refractive index, [1]	speed of sound, [2] [m/s]	viscosity, [2] [mPa·s]
293.15 K	0.0058	1133.02	1.5051	1898.3	–
298.15 K	0.0085	1129.97	1.5036	1868.9	–
303.15 K	0.0117	1126.92	1.5026	1844.9	1890.5
308.15 K	0.016	1123.81	1.5011	1824.4	1179.6
313.15 K	0.022	1120.62	1.4999	1806.5	779.8
318.15 K	0.0289	1117.51	1.4982	1790.1	519.3
323.15 K	0.0374	1114.45	1.4966	1774.7	359.2
328.15 K	0.048	1111.39	1.4953	1760.1	251.6
333.15 K	0.0596	1108.32	1.4936	1745.9	180.1
338.15 K	0.0741	1105.24	1.4922	1732.2	131.4
343.15 K	0.0894	1102.17	1.4908	1719.2	97

CCC[N+](CCC)(CCC)Cc1ccccc1.[Cl-] [benzyltripropylammonium chloride] + OCCO
Conditions	electrical conductivity, [2] [S/m]	mass density, [2] [kg/m3]	refractive index, [1]	speed of sound, [2] [m/s]	viscosity, [2] [mPa·s]
293.15 K	0.0734	1063.63	1.4981	1762.4	327.9
298.15 K	0.0883	1060.58	1.4965	1746.5	229.2
303.15 K	0.105	1057.52	1.4952	1731	164.6
308.15 K	0.125	1054.44	1.4939	1715.9	121
313.15 K	0.146	1051.35	1.4924	1701.1	90.8
318.15 K	0.17	1048.27	1.4911	1686.4	70.6
323.15 K	0.2	1045.19	1.4895	1671.9	54.4
328.15 K	0.228	1042.11	1.4879	1657.5	42.1
333.15 K	0.26	1039.03	1.4864	1643.3	33.5
338.15 K	0.292	1035.95	1.4849	1629.2	27
343.15 K	0.328	1032.88	1.4831	1615.7	22.2

CCC[N+](CCC)(CCC)Cc1ccccc1.[Cl-] [benzyltripropylammonium chloride] + Oc1ccccc1
Conditions	electrical conductivity, [2] [S/m]	mass density, [2] [kg/m3]	refractive index, [1]	speed of sound, [2] [m/s]	viscosity, [2] [mPa·s]
293.15 K	0.0213	1060.26	1.5486	1699.7	638.4
298.15 K	0.0295	1056.98	1.5471	1679.8	381.5
303.15 K	0.0397	1053.73	1.5452	1661.7	237.1
308.15 K	0.0523	1050.47	1.5436	1644.5	156.7
313.15 K	0.0669	1047.19	1.542	1628	107
318.15 K	0.0838	1043.91	1.5403	1611.9	76.8
323.15 K	0.0999	1040.64	1.5386	1596.2	57.6
328.15 K	0.118	1037.37	1.5369	1580.7	43.1
333.15 K	0.138	1034.12	1.5352	1565.5	32.6
338.15 K	0.162	1030.87	1.5334	1550.5	25.8
343.15 K	0.183	1027.64	1.5317	1536.1	20.4
